Values of other authors, collected in US10537528B2 (The Regents of the University of California, priority 2015, dated 2020).

Columns and labels:
[1] = system: obese individuals with NASH; settings: treated for 4-12 weeks
[2] = system: intracellular cystine (circulating white blood cells)
[3] = system: obese children who had steatosis; settings: 400-1000 IU/day for 4-10 months

Compound: CC(=O)N[C@@H](CS)C(=O)O [N-acetylcysteine]
- aminotransferase levels and gamma-GT [1]: improvement
- subject body mass index [1]: no reported change

Compound: NCCS [cysteamine]
- time to observed decrease in leukocyte cystine ([2]; delivery into the small intestine (WO 2007/089670)): within an hour
- depletion of intracellular cystine ([2]; taken regularly, measured in circulating white blood cells): up to 90%

Compound: vitamin E
- mean AST levels after treatment ([3]; decreased from 104±61 IU/L, P<0.002): 33±11 IU/L
- mean ALT levels after treatment ([3]; decreased from 175±106 IU/L, P<0.01): 40±26 IU/L
